The values that follow are results of earlier work, collected in patent publication US7670620B2, “Topical composition for the treatment of psoriasis and related skin disorders” (Bioderm, Inc., priority 2000, dated 2010).

In this series the test system is fibroblasts. Particulars: in vitro; Karzel and Domenjoz 1971.
Take `CC(=O)N[C@H]1C(O)O[C@H](CO)[C@H](O)[C@@H]1O` (stereo partly drawn) [N-acetylgalactosamine]: the “Secretion of mucopolysaccharides by fibroblasts” value (“Secretion of mucopolysaccharides” for short) was “also worked, but to a lesser degree”.
Turning to `CC(=O)N[C@H]1C(O)O[C@H](CO)[C@@H](O)[C@@H]1O` (stereo partly drawn) [N-acetylglucosamine], the “Secretion of mucopolysaccharides” value is “also worked, but to a lesser degree”.
In the case of `N[C@H]1C(O)O[C@H](CO)[C@@H](O)[C@@H]1O` (stereo partly drawn) [glucosamine], the “Secretion of mucopolysaccharides” value is on record as “significantly increases secretion of mucopolysaccharides by fibroblasts”.
